Data reported in ChEMBL document CHEMBL1240357, “Method for screening compounds that influence virulence gene expression in Staphylococcus aureus” (Antimicrob Agents Chemother, 2010).
Activity calls are given as the source filed them. The calls are words filed in the database; no cut-off is given here.

Key:
Format in all cases: functional, organism-based
Staphylococcus aureus [1] = assay: Induction of spa virulent gene expression in Staphylococcus aureus PC203 containing spa::lacZ assessed as color chage at 5 ug/ml at 37 degC in presence of chromogenic beta-galactosidase substrate and 1 to 50 % glucose solution
Staphylococcus aureus [2] = assay: Induction of hla virulent gene expression in Staphylococcus aureus PC322 containing hla::lacZ assessed as color chage at 5 ug/ml at 37 degC in presence of chromogenic beta-galactosidase substrate
Staphylococcus aureus [3] = assay: Induction of spa virulent gene expression in Staphylococcus aureus PC203 containing spa::lacZ assessed as color chage at 5 ug/ml at 37 degC in presence of chromogenic beta-galactosidase substrate
Staphylococcus aureus [4] = assay: Induction of hla virulent gene expression in Staphylococcus aureus PC322 containing hla::lacZ assessed as color chage at 5 ug/ml at 37 degC in presence of chromogenic beta-galactosidase substrate and 1 to 50 % glucose solution
Staphylococcus aureus [5] = assay: Induction of spa virulent gene expression in Staphylococcus aureus PC203 containing spa::lacZ assessed as color chage at 150 ug/ml at 37 degC in presence of chromogenic beta-galactosidase substrate and 1 to 50 % glucose solution
Staphylococcus aureus [6] = assay: Induction of hla virulent gene expression in Staphylococcus aureus PC322 containing hla::lacZ assessed as color chage at 150 ug/ml at 37 degC in presence of chromogenic beta-galactosidase substrate
Staphylococcus aureus [7] = assay: Induction of hla virulent gene expression in Staphylococcus aureus PC322 containing hla::lacZ assessed as color chage at 150 ug/ml at 37 degC in presence of chromogenic beta-galactosidase substrate and 1 to 50 % glucose solution
Staphylococcus aureus [8] = assay: Induction of spa virulent gene expression in Staphylococcus aureus PC203 containing spa::lacZ assessed as color chage at 150 ug/ml at 37 degC in presence of chromogenic beta-galactosidase substrate

SMILES | Activity (Staphylococcus aureus [1]) | Activity (Staphylococcus aureus [2]) | Activity (Staphylococcus aureus [3]) | Activity (Staphylococcus aureus [4]) | Activity (Staphylococcus aureus [5]) | Activity (Staphylococcus aureus [6]) | Activity (Staphylococcus aureus [7]) | Activity (Staphylococcus aureus [8])
CC[C@H]1OC(=O)[C@H](C)[C@@H](O[C@H]2C[C@@](C)(OC)[C@@H](O)[C@H](C)O2)[C@H](C)[C@@H](O[C@@H]2O[C@H](C)C[C@H](N(C)C)[C@H]2O)[C@](C)(O)C[C@@H](C)C(=O)[C@H](C)[C@@H](O)[C@]1(C)O | inactive | Active | Active | inactive |  |  |  | 
OC[C@H]1O[C@@H](Oc2c[nH]c3ccc(Br)c(Cl)c23)[C@H](O)[C@@H](O)[C@H]1O |  |  |  |  | inactive | Active | inactive | Active
